Laboratory results reported in patent US20080234130A1, “Compositions providing tolerance to multiple herbicides and methods of use thereof” (priority 2005, published 2008).

Assays:
[1] = tested on: heterozygous GAT-HRA corn; assay: Postemergence effect of ALS herbicides, glyphosate and glufosinate (fresh weight, visual injury); conditions: 200 g/ha (glyphosate 3472 g ae/ha, glufosinate ammonium 1870 g/ha), mean of four replications; for % Visual Injury Heterozygous GAT-HRA: 2 weeks after treatment, 0% no injury, 100% plant death; for Fresh Weight (g) Heterozygous GAT-HRA: applied two weeks after planting, fresh shoots 2 weeks after treatment, untreated 98.8 g
[2] = tested on: parent elite stiff stalk inbred corn; assay: as above; conditions: 200 g/ha (glyphosate 3472 g ae/ha, glufosinate ammonium 1870 g/ha), mean of four replications; for % Visual Injury Parent elite stiff stalk inbred: 2 weeks after treatment, 0% no injury, 100% plant death; for Fresh Weight (g) Parent elite stiff stalk inbred: applied two weeks after planting, fresh shoots 2 weeks after treatment, untreated 76.4 g
[3] = tested on: heterozygous GAT-HRA corn; assay: Preemergence effect of ALS herbicides (fresh weight, visual injury); conditions: 200 g/ha, mean of four replications; for % Visual Injury Heterozygous GAT-HRA: 4 weeks after treatment, 0% no injury, 100% plant death; for Fresh Weight (g) Heterozygous GAT-HRA: fresh shoots 4 weeks after treatment, untreated 47.0 g
[4] = tested on: parent elite stiff stalk inbred corn; assay: as above; conditions: 200 g/ha, mean of four replications; for % Visual Injury Patent elite stiff stalk inbred: 4 weeks after treatment, 0% no injury, 100% plant death; for Fresh Weight (g) patent elite stiff stalk inbred: fresh shoots 4 weeks after treatment, untreated 36.7 g

Compound	% Visual Injury Heterozygous GAT-HRA [1] [%]	Fresh Weight (g) Heterozygous GAT-HRA [1] [g]	% Visual Injury Parent elite stiff stalk inbred [2] [%]	Fresh Weight (g) Parent elite stiff stalk inbred [2] [g]	% Visual Injury Heterozygous GAT-HRA [3] [%]	Fresh Weight (g) Heterozygous GAT-HRA [3] [g]	% Visual Injury Patent elite stiff stalk inbred [4] [%]	Fresh Weight (g) patent elite stiff stalk inbred [4] [g]
COC(=O)c1cccc(C)c1S(=O)(=O)NC(=O)Nc1nc(OCC(F)(F)F)nc(N(C)C)n1 [Triflusulfuron-methyl]	8	110.9	100	2.1	5	53.5	100	26.3
Imazamethabenz-methyl	16	95.0	11	66.9	15	48.5	61	36.2
COc1cc(OC)nc(NC(=O)NS(=O)(=O)c2ncccc2OCC(F)(F)F)n1 [Trifloxysulfuron Na^+, N-[[(4,6-dimethoxy-2-pyrimidinyl)amino]-carbonyl]-3-(2,2,2-trifluoroethoxy)-2-pyridinesulfonamide]	29	86.6	100	1.0	0	50.8	100	0.0
CCc1cnc(C2=NC(C)(C(C)C)C(=O)N2)c(C(=O)O)c1 (stereo not drawn) [Imazethapyr]	9	–	97	–	20	–	69	–
COc1cc(OC)nc(NC(=O)NS(=O)(=O)c2ncccc2C(=O)N(C)C)n1 [Nicosulfuron, 2-[[[[(4,6-dimethoxy-2-pyrimidinyl)amino]carbonyl]amino]sulfonyl]-N,N-dimethyl-3-pyridinecarboxamide]	0	94.7	24	62.7	0	50.3	43	33.6
COC(=O)c1c(Cl)nn(C)c1S(=O)(=O)NC(=O)Nc1nc(OC)cc(OC)n1 [Halosulfuron-methyl, methyl 3-chloro-5-[[[[(4,6-dimethoxy-2-pyrimidinyl)amino]-carbonyl]amino]sulfonyl]-1-methyl-1H-pyrazole-4-carboxylate]	8	–	14	–	15	–	30	–
Cc1ccn2nc(S(=O)(=O)Nc3c(F)cccc3F)nc2n1 [Flumetsulam, N-(2,6-difluorophenyl)-5-methyl[1,2,4]triazolo[1,5-a]pyrimidine-2-sulfonamide]	3	–	85	–	13	–	13	–
COCc1cnc(C2=NC(C)(C(C)C)C(=O)N2)c(C(=O)O)c1 (stereo not drawn) [Imazamox]	4	90.9	100	2.2	13	47.5	99	0.8
COc1cc(OC)nc(NC(=O)NS(=O)(=O)c2cc(NC=O)ccc2C(=O)N(C)C)n1 [Foramsulfuron, 2-[[[[(4,6-dimethoxy-2-pyrimidinyl)amino]carbonyl]amino]sulfonyl]-4-(formylamino)-N,N-dimethylbenzamide]	8	–	28	–	7	–	5	–
CCS(=O)(=O)c1nc2ccccn2c1S(=O)(=O)NC(=O)Nc1nc(OC)cc(OC)n1 [Sulfosulfuron, N-[[(4,6-dimethoxy-2-pyrimidinyl)amino]carbonyl]-2-(ethylsulfonyl)imidazo[1,2-a]pyridine-3-sulfonamide]	3	–	97	–	18	–	100	–
CCOc1ccccc1OS(=O)(=O)NC(=O)Nc1nc(OC)cc(OC)n1 [Ethoxysulfuron, 2-ethoxyphenyl[[(4,6-dimethoxy-2-pyrimidinyl)amino]carbonyl]sulfamate]	15	–	88	–	25	–	63	–
COc1nc(C)nc(NC(=O)NS(=O)(=O)c2ccccc2Cl)n1 [Chlorsulfuron, 2-chloro-N-[[(4-methoxy-6-methyl-1,3,5-triazin-2-yl)amino]-carbonyl]benzenesulfonamide]	13	–	100	–	33	–	100	–
CP(=O)(O)CCC(N)C(=O)O (stereo not drawn) [Glufosinate ammonium]	1	112.3	99	2.4	–	–	–	–
COC(=O)c1ccccc1S(=O)(=O)NC(=O)Nc1nc(C)cc(C)n1 [Sulfometuron-methyl, methyl 2-[[[[(4,6-dimethyl-2-pyrimidinyl)amino]carbonyl]amino]sulfonyl]-benzoate]	2	104.5	100	2.0	6	47.3	100	0.0
CO/N=C(/C)c1cccc(Oc2nc(OC)cc(OC)n2)c1C(=O)OC [Pyriminobac-methyl]	4	95.2	93	7.6	20	39.9	83	30.4
CCCOc1nn(C(=O)NS(=O)(=O)c2ccccc2C(=O)OC)c(=O)n1C [Propoxycarbazone Na^+, methyl 2-[[[(4,5-dihydro-4-methyl-5-oxo-3-propoxy-1H-1,2,4-triazol-1-yl)carbonyl]amino]sulfonyl]benzoate]	9	101.2	100	1.9	100	46.7	100	0.6
CCOc1nc(NC)nc(NC(=O)NS(=O)(=O)c2ccccc2C(=O)OC)n1 [Ethametsulfuron-methyl, methyl 2-[[[[[4-ethoxy-6-(methylamino)-1,3,5-triazin-2-yl]amino]carbonyl]amino]sulfonyl]benzoate]	6	98.0	96	5.6	88	50.1	100	1.6
COc1nc(C)nc(NC(=O)NS(=O)(=O)c2ccccc2CCC(F)(F)F)n1 [Prosulfuron, N-[[(4-methoxy-6-methyl-1,3,5-triazin-2-yl)amino]carbonyl]-2-(3,3,3-trifluoropropyl)benzenesulfonamide]	29	–	25	–	9	–	68	–
COc1cc(OC)nc(Sc2cccc(Cl)c2C(=O)[O-])n1.[Na+] [Pyrithiobac Na^+, pyrithiobac-sodium]	9	87.9	100	2.8	0	48.6	100	0.0
COC(=O)c1sccc1S(=O)(=O)NC(=O)Nc1nc(C)nc(OC)n1 [Thifensulfuron-methyl, methyl 3-[[[[(4-methoxy-6-methyl-1,3,5-triazin-2-yl)amino]carbonyl]amino]sulfonyl]-2-thiophenecarboxylate]	10	–	98	–	3	–	88	–
